The target in experiment [1] is T1, tau (Homo sapiens, UniProt P10636). The class given is biochemical.
The target of experiment [2] is T1, tau. The format is biochemical. The source holds these as a separate data set.

Here are results for two compounds from PMC5112770 (ACS chemical neuroscience, 2015).

Where two headings read alike, the source gives them in different places.

T1 sequence (P10636 1-441 isoform P10636-8): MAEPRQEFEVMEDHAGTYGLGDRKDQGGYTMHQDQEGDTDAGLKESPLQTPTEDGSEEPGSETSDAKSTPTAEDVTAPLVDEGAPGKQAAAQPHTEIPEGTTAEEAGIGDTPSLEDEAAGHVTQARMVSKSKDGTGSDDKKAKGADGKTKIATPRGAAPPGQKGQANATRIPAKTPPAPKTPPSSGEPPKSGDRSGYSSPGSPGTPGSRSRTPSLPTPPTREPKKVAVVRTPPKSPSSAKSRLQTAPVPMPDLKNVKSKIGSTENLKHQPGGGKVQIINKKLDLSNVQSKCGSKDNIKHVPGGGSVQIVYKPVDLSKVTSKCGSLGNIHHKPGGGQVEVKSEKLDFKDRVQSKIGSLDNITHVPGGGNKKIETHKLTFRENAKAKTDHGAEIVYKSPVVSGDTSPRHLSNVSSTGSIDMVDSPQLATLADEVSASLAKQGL

For orientation: IC50 means the point on the concentration scale where inhibition reaches its midpoint. A lower IC50 goes with greater potency in that assay. As for `CC[C@H](C)/C=C(C)/C=C/C1=CC2=C(Br)C(=O)C(C)(OC(C)=O)C(=O)C2=CO1` (some centres unmarked) [aza-9], 56 ± 14 µM corresponded to half-maximal inhibition against tau [1] (IC50).

`CC[C@H](C)/C=C(C)/C=C/C1=CC2=C(Br)C(=O)C(C)(O)C(=O)C2=CO1` (some centres unmarked) [aza-13] yielded an IC50 against tau [2] of 216 ± 18 µM.
